# Measured values as given in patent publication US7883715B2, “Pesticide compositions containing dicarboxylic acids” (Monsanto Technology LLC, priority 2002, dated 2011).
# Like-named read-outs stand apart in the source and are kept apart here.
# Columns and labels:
# [1] = system: ECHCF; assay: Greenhouse herbicidal effectiveness, ECHCF; type: in vivo, Japanese millet, barnyardgrass; settings: for efficacy ECHCF: Table 19A, 16 days after treatment; for inhibition at 75 g/ha / inhibition at 100 g/ha / inhibition at 150 g/ha / inhibition at 200 g/ha: 408 h, 17 days after treatment; for inhibition at 75 g/ha: 75 g a.e./ha; for inhibition at 150 g/ha: 150 g a.e./ha
# Source text: (§1) The following greenhouse testing procedure was used for evaluating compositions of the Examples to determine herbicidal effectiveness, except where otherwise indicated.
# (§2) Seeds of the plant species indicated were planted in 88 mm square pots in a soil mix which was previously sterilized and prefertilized with a 14-14-14 NPK slow release fertilizer at a rate of 3.6 kg/m3. The pots were placed in a greenhouse with sub-irrigation. About one week after emergence, seedlings were thinned as needed, including removal of any unhealthy or abnormal plants, to create a uniform series of test pots.
# (§3) The plants were maintained for the duration of the test in the greenhouse where they received a minimum of 14 hours of light per day. […] Exposure temperatures were not precisely controlled but averaged about 29° C. during the day and about 21° C. during the night. Plants were sub-irrigated throughout the test to ensure adequate soil moisture levels.
# (§4) Pots were assigned to different treatments in a fully randomized experimental design with 6 replications. A set of pots was left untreated as a reference against which affects of the treatments could later be evaluated.
# (§5) Application of glyphosate compositions was made by spraying with a track sprayer fitted with a 9501E nozzle calibrated to deliver a spray volume of 93 liters per hectare (l/ha) at a pressure of 165 kilopascals (kPa). After treatment, pots were returned to the greenhouse until ready for evaluation.
# (§6) Treatments were made using dilute aqueous compositions. These could be prepared as spray compositions directly from their ingredients, or by dilution with water of preformulated concentrate compositions.
# (§7) For evaluation of herbicidal effectiveness, all plants in the test were examined by a single practiced technician, who recorded percent control, a visual measurement of the effectiveness of each treatment by comparison with untreated plants. […] The reported % control values represent the average for all replicates of each treatment.
# [2] = system: ABUTH; assay: Greenhouse herbicidal effectiveness, ABUTH; type: in vivo, velvetleaf; settings: for efficacy ABUTH: Table 19A, 16 days after treatment; for inhibition at 75 g/ha / inhibition at 100 g/ha / inhibition at 150 g/ha / inhibition at 200 g/ha: Abutilon theophrasti, 408 h, 17 days after treatment; for inhibition at 75 g/ha: 75 g a.e./ha; for inhibition at 150 g/ha: 150 g a.e./ha
# Source text: as §1, §2, §3, §4, §5, §6, §7
# [3] = system: TRZVX; assay: Greenhouse herbicidal effectiveness, TRZVX; type: in vivo, wheat; settings: Table 19A, 16 days after treatment
# Source text: as §1, §2, §3, §4, §5, §6, §7
# [4] = 30 g a.e./ha, tank mix OTH1 1 % v/v
# [5] = 70 g a.e./ha, tank mix OTH1 1 % v/v
# [6] = 100 g a.e./ha, tank mix OTH1 1 % v/v
# [7] = 200 g a.e./ha, tank mix OTH1 1 % v/v
# [8] = read-out: % inhibition ECHCF, Table 19B, OTH1 1 % v/v
# [9] = read-out: % inhibition ECHCF, Table 19B, no OTH22, no OTH1
# [10] = read-out: % inhibition ABUTH, Table 19B, OTH1 1 % v/v
# [11] = read-out: % inhibition ABUTH, Table 19B, no OTH22, no OTH1
# [12] = Table 19B, OTH1 1 % v/v, read-out: % inhibition ECHCF
# [13] = Table 19B, no OTH22, no OTH1, read-out: % inhibition ECHCF
# [14] = Table 19B, OTH1 1 % v/v, read-out: % inhibition ABUTH
# [15] = Table 19B, no OTH22, no OTH1, read-out: % inhibition ABUTH
smiles,measurement,setting,value
C[C@@H](Oc1ccc(Oc2ccc(C(F)(F)F)cn2)cc1)C(=O)O [fluazifop-p],efficacy ECHCF,"[1]; 30 g a.e./ha, no OTH1",98
same,efficacy ECHCF,[1]; [4],97
same,efficacy ECHCF,"[1]; 70 g a.e./ha, no OTH1",100
same,efficacy ECHCF,[1]; [5],100
same,efficacy ECHCF,"[1]; 100 g a.e./ha, no OTH1",100
same,efficacy ECHCF,[1]; [6],100
same,efficacy ECHCF,"[1]; 200 g a.e./ha, no OTH1",100
same,efficacy ECHCF,[1]; [7],100
same,efficacy ABUTH,"[2]; 30 g a.e./ha, no OTH1","0, 0, 0, 0"
same,efficacy ABUTH,[2]; [4],"0, 0, 0, 0"
same,efficacy ABUTH,"[2]; 70 g a.e./ha, no OTH1","0, 0, 0, 0"
same,efficacy ABUTH,[2]; [5],"0, 0, 0, 0"
same,efficacy ABUTH,"[2]; 100 g a.e./ha, no OTH1","0, 0, 0, 0"
same,efficacy ABUTH,[2]; [6],"0, 0, 0, 0"
same,efficacy ABUTH,"[2]; 200 g a.e./ha, no OTH1","0, 0, 0, 0"
same,efficacy ABUTH,[2]; [7],"0, 0, 0, 0"
same,efficacy TRZVX,"[3]; 30 g a.e./ha, no OTH1",70
same,efficacy TRZVX,[3]; [4],73
same,efficacy TRZVX,"[3]; 70 g a.e./ha, no OTH1",85
same,efficacy TRZVX,[3]; [5],83
same,efficacy TRZVX,"[3]; 100 g a.e./ha, no OTH1",91
same,efficacy TRZVX,[3]; [6],93
same,efficacy TRZVX,"[3]; 200 g a.e./ha, no OTH1",97
same,efficacy TRZVX,[3]; [7],98
CP(=O)(O)CCC(N)C(=O)O (centres unmarked) [glufosinate],inhibition at 75 g/ha,[1]; [8],95%
same,inhibition at 75 g/ha,[1]; [9],94%
same,inhibition at 100 g/ha,"[1]; read-out: % inhibition ECHCF, Table 19B, 100 g a.e./ha, OTH1 1 % v/v",96%
same,inhibition at 100 g/ha,"[1]; read-out: % inhibition ECHCF, Table 19B, 100 g a.e./ha, no OTH22, no OTH1",95%
same,inhibition at 150 g/ha,[1]; [8],99%
same,inhibition at 150 g/ha,[1]; [9],98%
same,inhibition at 200 g/ha,"[1]; read-out: % inhibition ECHCF, Table 19B, 200 g a.e./ha, OTH1 1 % v/v",100%
same,inhibition at 200 g/ha,"[1]; read-out: % inhibition ECHCF, Table 19B, 200 g a.e./ha, no OTH22, no OTH1",99%
same,inhibition at 75 g/ha,[2]; [10],68%
same,inhibition at 75 g/ha,[2]; [11],22%
same,inhibition at 100 g/ha,"[2]; read-out: % inhibition ABUTH, Table 19B, 100 g a.e./ha, OTH1 1 % v/v",82%
same,inhibition at 100 g/ha,"[2]; read-out: % inhibition ABUTH, Table 19B, 100 g a.e./ha, no OTH22, no OTH1",43%
same,inhibition at 150 g/ha,[2]; [10],90%
same,inhibition at 150 g/ha,[2]; [11],74%
same,inhibition at 200 g/ha,"[2]; read-out: % inhibition ABUTH, Table 19B, 200 g a.e./ha, OTH1 1 % v/v",98%
same,inhibition at 200 g/ha,"[2]; read-out: % inhibition ABUTH, Table 19B, 200 g a.e./ha, no OTH22, no OTH1",89%
CCc1cnc(C2=NC(C)(C(C)C)C(=O)N2)c(C(=O)O)c1 (centres unmarked) [imazethapyr],efficacy ECHCF,"[1]; 30 g a.e./ha, no OTH1",68
same,efficacy ECHCF,[1]; [4],66
same,efficacy ECHCF,"[1]; 70 g a.e./ha, no OTH1",72
same,efficacy ECHCF,[1]; [5],71
same,efficacy ECHCF,"[1]; 100 g a.e./ha, no OTH1",75
same,efficacy ECHCF,[1]; [6],74
same,efficacy ECHCF,"[1]; 200 g a.e./ha, no OTH1",87
same,efficacy ECHCF,[1]; [7],80
same,efficacy ABUTH,"[2]; 30 g a.e./ha, no OTH1",73
same,efficacy ABUTH,[2]; [4],72
same,efficacy ABUTH,"[2]; 70 g a.e./ha, no OTH1",80
same,efficacy ABUTH,[2]; [5],81
same,efficacy ABUTH,"[2]; 100 g a.e./ha, no OTH1",82
same,efficacy ABUTH,[2]; [6],85
same,efficacy ABUTH,"[2]; 200 g a.e./ha, no OTH1",85
same,efficacy ABUTH,[2]; [7],89
same,efficacy TRZVX,"[3]; 30 g a.e./ha, no OTH1",14
same,efficacy TRZVX,[3]; [4],25
same,efficacy TRZVX,"[3]; 70 g a.e./ha, no OTH1",41
same,efficacy TRZVX,[3]; [5],33
same,efficacy TRZVX,"[3]; 100 g a.e./ha, no OTH1",52
same,efficacy TRZVX,[3]; [6],50
same,efficacy TRZVX,"[3]; 200 g a.e./ha, no OTH1",73
same,efficacy TRZVX,[3]; [7],67
CCOc1cc(Oc2ccc(C(F)(F)F)cc2Cl)ccc1[N+](=O)[O-] [oxyfluorfen],inhibition at 75 g/ha,[1]; [12],0%
same,inhibition at 75 g/ha,[1]; [13],0%
same,inhibition at 100 g/ha,"[1]; Table 19B, 100 g a.e./ha, OTH1 1 % v/v, read-out: % inhibition ECHCF",0%
same,inhibition at 100 g/ha,"[1]; Table 19B, 100 g a.e./ha, no OTH22, no OTH1, read-out: % inhibition ECHCF",0%
same,inhibition at 150 g/ha,[1]; [12],0%
same,inhibition at 150 g/ha,[1]; [13],0%
same,inhibition at 200 g/ha,"[1]; Table 19B, 200 g a.e./ha, OTH1 1 % v/v, read-out: % inhibition ECHCF",2%
same,inhibition at 200 g/ha,"[1]; Table 19B, 200 g a.e./ha, no OTH22, no OTH1, read-out: % inhibition ECHCF",3%
same,inhibition at 75 g/ha,[2]; [14],80%
same,inhibition at 75 g/ha,[2]; [15],81%
same,inhibition at 100 g/ha,"[2]; Table 19B, 100 g a.e./ha, OTH1 1 % v/v, read-out: % inhibition ABUTH",82%
same,inhibition at 100 g/ha,"[2]; Table 19B, 100 g a.e./ha, no OTH22, no OTH1, read-out: % inhibition ABUTH",82%
same,inhibition at 150 g/ha,[2]; [14],87%
same,inhibition at 150 g/ha,[2]; [15],84%
same,inhibition at 200 g/ha,"[2]; Table 19B, 200 g a.e./ha, OTH1 1 % v/v, read-out: % inhibition ABUTH",92%
same,inhibition at 200 g/ha,"[2]; Table 19B, 200 g a.e./ha, no OTH22, no OTH1, read-out: % inhibition ABUTH",91%
